From patent US6919362B2, “Heterocyclic derivatives, preparation method and pharmaceutical compositions containing same” (Les Laboratoires Servier, priority 2000, dated 2005)
Blank lines part the entries; values can stand above or below the compound they belong to.

What was measured:
ob/ob mouse = assay: Antidiabetic and hypolipidaemic effect in the ob/ob mouse; format: in vivo; details: for reduction of glycaemia: glycaemia 24 hours after the final administration
Excerpt: Mutations in laboratory animals and also different sensitivities to dietary regimens have allowed the development of animal models having non-insulin dependent diabetes and hyperlipidaemia associated with obesity and with resistance to insulin.
Genetic mice models (ob/ob) (Diabetes, 1982, 31 (1), 1-6) and Zucker (fa/fa) rats have been developed by various laboratories in order to understand the physiopathology of those diseases and test the effectiveness of new antidiabetic compounds (Diabetes, 1983, 32, 830-838).
The 10-week-old female ob/ob mouse (Harlan) is used for the in vivo tests. The animals are kept in a light-darkness cycle of 12 hours at 25° C. The mouse has a basal hyperglycaemia of 2 g/l. The animals are randomly selected in terms of their glycaemia to form groups of six. The compounds tested by the intraperitoneal route are dissolved in a mixture of dimethyl sulphoxide (10%) and solutol (15%) to be administered at 10 mg/kg in a volume of 2.5 ml/kg twice per day for four days. By the per os route, the compounds are tested at 30 mg/kg administered in a volume of 2.5 ml/kg of 1%, HEC twice per day for four days. The control groups receive the solvents under the same conditions as the treated groups. The activity of the products is evaluated by measuring glycaemia 24 hours after the final administration and by measuring body weight daily.

SMILES: CN(CCOc1ccc(CC2SC(=O)NC2=O)cc1)c1ccccn1 (centres unmarked) [rosiglitazone, reference compound]
variation in body weight (ob/ob mouse; ob/ob mouse, in four days, body weight measured daily): +4%

melting point: 186 to 190 °C
SMILES: COC(=O)C(=Cc1ccc(OCCn2c(=O)sc3cc(NC(=O)c4ccccc4)ccc32)cc1)C(=O)OC [Example 76, Dimethyl 2-{4-[2-(6-(benzoylamino)-2-oxo-1,3-benzothiazol-3(2H)-yl)ethoxy]benzylidene}malonate]

melting point: 102 to 105 °C
SMILES: COC(=O)C(=Cc1ccc(OCCn2c(=O)sc3cc(C(=O)Nc4ccccc4)ccc32)cc1)C(=O)OC [Example 84, Dimethyl 2-{4-[2-(6-(anilinocarbonyl)-2-oxo-1,3-benzothiazol-3(2H)-yl)ethoxy]benzylidene}malonate]

SMILES: COC(=O)C(Cc1ccc(OCCn2c(=O)sc3cc(C(=O)c4ccccc4)ccc32)cc1)C(=O)OC [Example 18, Dimethyl 2-{4-[2-(6-benzoyl-2-oxo-1,3-benzothiazol-3(2H)-yl)-ethoxy]benzyl}malonate]
reduction of glycaemia (ob/ob mouse; 10 mg/kg i.p. twice per day for four days): 45%
reduction of glycaemia (ob/ob mouse; 30 mg/kg per os twice per day for four days): 43%
